These results are taken from ChEMBL document CHEMBL1201862, “PubChem BioAssay data set” (2004).

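Assay format: 96-well plates, 48-hour exposure. At the GI50, growth is halved.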 Active and inactive are the calls of the source. Rule as the data show it: active = GI50 up to about 1.1 µM and inactive = higher.

Among the test systems are HCC 2998; OVCAR-5; HOP-92; ACHN; U-251; CAKI-1; LXFL 529; CCRF-CEM; UO-31; NCI-H460; SK-MEL-2; NCI-H522; NCI-H226; HCT-116; SK-MEL-5; EKVX; RXF 393; NCI/ADR-RES; MDA-MB-435; DU-145.
Assay in all cases: NCI anticancer screen, dose series, 48 h

Consider `O=C(CC(=O)n1nc(-c2ccccc2)c(/N=N/c2ccc(Cl)cc2)c1-c1ccccc1)Nc1ccc(Cl)cc1`, for which the GI50 in the assay on HCC 2998 is > 100 µM (inactive); in the assay on OVCAR-5, > 100 µM (inactive); in the assay on HOP-92 it was > 91 µM (inactive); in the assay on ACHN, > 100 µM (inactive); in the assay with U-251, > 100 µM (inactive); in the assay with CAKI-1, > 100 µM (inactive). In addition, the GI50 is > 60 µM (inactive) in the assay on LXFL 529; > 43.5 µM (inactive) with CCRF-CEM; > 100 µM (inactive) with UO-31; > 43.4 µM (inactive) in the assay with NCI-H460; > 100 µM (inactive) in the assay with SK-MEL-2; > 100 µM (inactive) in the assay with NCI-H522. Further, the GI50 in the assay on NCI-H226 was > 100 µM (inactive); in the assay on HCT-116, > 39.9 µM (inactive); with SK-MEL-5 it was > 100 µM (inactive); with EKVX, > 100 µM (inactive).

`O=c1nc(-c2ccccc2)scc1-c1ccccc1`: the GI50 is 74.5 µM (inactive) in the assay with RXF 393; 67.9 µM (inactive) in the assay on HOP-92; > 100 µM (inactive) in the assay with ACHN; 98.6 µM (inactive) in the assay with U-251; > 100 µM (inactive) in the assay with CAKI-1; > 100 µM (inactive) in the assay with LXFL 529. In addition, the GI50 in the assay on CCRF-CEM is > 100 µM (inactive); in the assay with UO-31, > 100 µM (inactive); with NCI-H460, > 100 µM (inactive); in the assay with SK-MEL-2, > 100 µM (inactive); in the assay with NCI-H522, 21 µM (inactive); with NCI-H226 it was > 100 µM (inactive). Also, the GI50 with HCT-116, in the assay on SK-MEL-5 and in the assay on EKVX was > 100 µM (inactive) in each case.

Consider `CS/C(=N\C(=S)N(C)C)N(c1ccccc1)c1nc(N(C)C)s[s+]1`, for which the GI50 is 11.9 µM (inactive) in the assay with HCC 2998; 14 µM (inactive) in the assay with RXF 393; 20.9 µM (inactive) in the assay on HOP-92; 23.8 µM (inactive) with ACHN; 6.84 µM (inactive) in the assay on U-251; 29 µM (inactive) in the assay on CAKI-1. Further, the GI50 was 3.87 µM (inactive) with LXFL 529; 1.88 µM (inactive) in the assay with CCRF-CEM; 27.9 µM (inactive) in the assay on UO-31; 2.91 µM (inactive) in the assay with NCI-H460; 5.52 µM (inactive) with SK-MEL-2; 1.47 µM (inactive) with NCI-H522. Further, the GI50 in the assay with HCT-116 was 10 µM (inactive); in the assay on EKVX, 16 µM (inactive).

Regarding `CCc1ccccc1NC(=O)CCc1n[nH]c(=S)o1`, the GI50 with HCC 2998, in the assay on OVCAR-5, with HOP-92, in the assay with ACHN, with U-251 and in the assay on CAKI-1 was > 100 µM (inactive) throughout. Also, the GI50 in the assay with LXFL 529 is > 100 µM (inactive); in the assay with CCRF-CEM, > 100 µM (inactive); in the assay with UO-31, > 100 µM (inactive); with NCI-H460, > 100 µM (inactive); with NCI-H226, > 100 µM (inactive); with HCT-116, 18.5 µM (inactive). Besides, the GI50 in the assay on SK-MEL-5 and in the assay on EKVX was > 100 µM (inactive) throughout.

Take `COC1/C(=C\c2ccccc2I)c2ccccc2N1C(C)=O` (stereo not given): the GI50 with HCC 2998 is 16 µM (inactive); in the assay with RXF 393, 5.69 µM (inactive); with HOP-92, 2.2 µM (inactive); in the assay on ACHN, 19.5 µM (inactive); with U-251, 18.6 µM (inactive); in the assay with CAKI-1 it was 17.1 µM (inactive). Further, the GI50 in the assay with LXFL 529 was 12.9 µM (inactive); in the assay with CCRF-CEM, 17 µM (inactive); in the assay with UO-31, 2.48 µM (inactive); with NCI-H460 it was 17.6 µM (inactive); with SK-MEL-2, 17.5 µM (inactive); in the assay on HCT-116, 13.8 µM (inactive). Besides, the GI50 with EKVX was 15.1 µM (inactive).

Consider `C=C1CCC23CC(CC[C@@H]2[C@@]12C[C@@H](c1ccoc1)OC2=O)OC3=O` (stereo not given in full), for which the GI50 in the assay with HCC 2998, with OVCAR-5, with HOP-92, in the assay on ACHN, in the assay on U-251 and in the assay with CAKI-1 was > 100 µM (inactive) each time. Besides, the GI50 is > 100 µM (inactive) with LXFL 529; 63 µM (inactive) in the assay with CCRF-CEM; > 100 µM (inactive) with UO-31; > 100 µM (inactive) in the assay with NCI-H460; > 100 µM (inactive) with SK-MEL-2; > 100 µM (inactive) in the assay with NCI-H522. Moreover, the GI50 with NCI-H226, with HCT-116, in the assay on SK-MEL-5 and with EKVX was > 100 µM (inactive) throughout.

Regarding `CC(NC1CCCC[C@@H]1O)c1ccccc1` (stereo not given in full), the GI50 with HCC 2998, in the assay on OVCAR-5, in the assay on RXF 393, in the assay on HOP-92, with ACHN and in the assay with U-251 was > 100 µM (inactive) throughout. The GI50 is 55.3 µM (inactive) in the assay with CAKI-1; > 100 µM (inactive) in the assay on LXFL 529; > 100 µM (inactive) in the assay on CCRF-CEM; > 100 µM (inactive) with UO-31; > 100 µM (inactive) with NCI-H460; > 100 µM (inactive) in the assay with SK-MEL-2. Moreover, the GI50 in the assay on NCI-H226, in the assay with HCT-116, in the assay on SK-MEL-5 and with EKVX was > 100 µM (inactive) each time.

With `N#CC(C#N)=Cc1ccc(C(O)P(=O)(O)O)cc1` (stereo not given), the GI50 in the assay with HCC 2998 was > 100 µM (inactive); with OVCAR-5, > 100 µM (inactive); with HOP-92, 39.6 µM (inactive); in the assay on ACHN, > 100 µM (inactive); in the assay with U-251 it was > 100 µM (inactive); in the assay with CAKI-1, > 100 µM (inactive). The GI50 with LXFL 529 was > 100 µM (inactive); in the assay with CCRF-CEM it was 71.8 µM (inactive); in the assay with UO-31, > 100 µM (inactive); in the assay with NCI-H460, > 100 µM (inactive); with SK-MEL-2 it was > 100 µM (inactive); with NCI-H522, 56.6 µM (inactive). Further, the GI50 in the assay on NCI-H226, in the assay with HCT-116, with SK-MEL-5 and in the assay on EKVX was > 100 µM (inactive) throughout.

`O=C(O)COc1ccccc1C(=O)Nc1ccccc1`: the GI50 with OVCAR-5, in the assay on HOP-92, in the assay with ACHN, with U-251, in the assay with CAKI-1 and with LXFL 529 was > 100 µM (inactive) each time. Moreover, the GI50 in the assay with CCRF-CEM, in the assay with UO-31, with NCI-H460, with SK-MEL-2, in the assay with NCI-H522 and in the assay with NCI-H226 was > 100 µM (inactive) in each case. The GI50 in the assay with HCT-116, in the assay on SK-MEL-5 and in the assay on EKVX was > 100 µM (inactive) throughout.

Regarding `C#Cc1c(C)c(/C=C/C(C)=C/C=C/C(C)=C/C(=O)OC)n(C)c1C`, the GI50 in the assay with OVCAR-5, in the assay with HOP-92, with ACHN, in the assay on U-251, in the assay with CAKI-1 and in the assay on LXFL 529 was > 100 µM (inactive) each time. For the same compound, the GI50 in the assay on CCRF-CEM, with UO-31, with NCI-H460, with SK-MEL-2, in the assay on NCI-H522 and in the assay with HCT-116 was > 100 µM (inactive) in each case. Besides, the GI50 with EKVX was > 100 µM (inactive).

Take `CCOC(=O)C1=C(C)N(NC(N)=O)C(C)(O)C12CCOC2=O` (stereo not given): the GI50 in the assay with HCC 2998, in the assay with OVCAR-5, with ACHN, with U-251, with CAKI-1 and in the assay with LXFL 529 was > 100 µM (inactive) in each case. For the same compound, the GI50 with UO-31, in the assay with NCI-H460, in the assay with SK-MEL-2, in the assay on NCI-H522, with NCI-H226 and with HCT-116 was > 100 µM (inactive) throughout. The GI50 in the assay on SK-MEL-5 and in the assay with EKVX was > 100 µM (inactive) in each case.

Consider `CCOC(=O)NC(=O)c1cn(CCSCCOC(=O)NCCCCCCNC(=O)OCCSCCn2cc(C(=O)NC(=O)OCC)c(=O)n(C)c2=O)c(=O)n(C)c1=O`, for which the GI50 in the assay with HCC 2998 is 30.5 µM (inactive); in the assay on OVCAR-5 it was > 100 µM (inactive); with RXF 393 it was 27.6 µM (inactive); in the assay with HOP-92, 20.9 µM (inactive); with ACHN it was > 100 µM (inactive); in the assay on U-251 it was 16.8 µM (inactive). Moreover, the GI50 with LXFL 529 was 5.36 µM (inactive); in the assay on CCRF-CEM it was 30 µM (inactive); in the assay with UO-31 it was > 100 µM (inactive); in the assay on NCI-H460, 29.9 µM (inactive); in the assay with SK-MEL-2, 34.2 µM (inactive); in the assay on NCI-H226 it was 21.1 µM (inactive). The GI50 was 19.2 µM (inactive) in the assay on HCT-116 and > 100 µM (inactive) in the assay with EKVX.

Take `CCC1(N)C(=O)OCc2c1cc1n(c2=O)Cc2cc3ccccc3nc2-1` (stereo not given): the GI50 in the assay on HCC 2998 was 38.4 µM (inactive); in the assay on OVCAR-5 it was 44.5 µM (inactive); in the assay with RXF 393, 13.4 µM (inactive); with HOP-92 it was 35.4 µM (inactive); in the assay with ACHN, 3.73 µM (inactive); with U-251 it was 6.73 µM (inactive). For the same compound, the GI50 in the assay with CAKI-1 was 2.84 µM (inactive); in the assay on NCI/ADR-RES, 5.02 µM (inactive); with MDA-MB-435, 54.6 µM (inactive); in the assay with DU-145 it was 2.65 µM (inactive); in the assay on CCRF-CEM it was 0.859 µM (active); with UO-31, 3.42 µM (inactive). For the same compound, the GI50 with NCI-H460 is 0.47 µM (active); in the assay on SK-MEL-2, > 85.7 µM (inactive); in the assay with NCI-H522, 9.51 µM (inactive); with NCI-H226 it was 6.08 µM (inactive); in the assay on HCT-116, 4.67 µM (inactive); in the assay with SK-MEL-5, 5.21 µM (inactive). In addition, in the assay with EKVX, the GI50 is 51.4 µM (inactive).
